Source: patent publication US10702568B2, “Compositions containing silymarin and sulfoalkyl ether cyclodextrin and methods of using the same” (UNIVERSITY OF KANSAS, priority 2015, dated 2020)
≈ marks a conversion by molar mass, not a printed value.

Columns and labels:
[1] = Silymarin solubility at elevated temperatures (Example 3, HPLC); format: physicochemical; conditions: 160 mg silymarin in 1 ml 0.1 M CAPTISOL®, sealed vial, 70-75° C., about one hour
Experimental: The solubility of silymarin was also studied at elevated temperatures. The silymarin-water samples were prepared by adding 3.0 ml of deionized water or 3.0 ml of CAPTISOL® solution (0.05 M, 0.10 M, or 0.20 M) to 155 mg silymarin 80% in 5 ml Eppendorf tube, and the tubes were capped securely to minimize evaporation loss and submerged in a water bath at an elevated temperature (60° C. or 75° C.)). CAPTISOL® solutions were prepared by dissolving CAPTISOL® in water. The solution in the tube was stirred for a certain amount of time. The solution was then centrifuged for 5 min twice and the supernatant was diluted with 40% methanol for HPLC analysis. The silymarin CAPTISOL® samples were diluted by adding 10 μL supernatant sample to 990 μL diluent. The silymarin water samples were diluted by adding 100 μL supernatant sample to 900 μL diluent. The diluted samples were then analyzed using HPLC according to the procedures described in Example 1.
Saturated CAPTISOL® silymarin solutions were also prepared by adding 160 mg silymarin to 1 ml of 0.1 M CAPTISOL® solution in a sealed vial under mechanic stirring and the vial was kept in a water bath at 70-75° C. The solution became quickly saturated in about one hour. The solution was then cooled to room temperature and centrifuged, and the supernatant can then be used for preparing various formulations. […]

[2] = Solubility of silymarin components in water (Example 10, HPLC); format: physicochemical; conditions: water; component of Indena silymarin extract, HPLC; read-out: Solubility in water
Experimental: Silymarin components including taxifolin, silydianin, silychristin, silybin A, silybin B, isosilybin A, and isosilybin B were tested for their solubility in water and also for their Log D value. The silymarin extract was obtained from Indena® (Indena Code: 9065110). The HPLC system consisted of Waters system equipped with performance PLUS inline degasser along dual λ absorbance detector set at 288 nm. The chromatographic separation of silymarin constituents was achieved on a Symmetry Shield RP18 column (150×4.6 mm, 5 μm); which was maintained at ambient room temperature conditions. The binary mobile phase system consisted of reservoir A (methanol: 10 mM ammonium acetate pH 5 [65:35 v/v]) and reservoir B (10 mM ammonium acetate, pH 5) were run as per gradient program (0-1.9 min: 25% A and 75% B; 2.0-14.9 min: 80% A and 20% B and 15-37.9 min: 80% A and 20% B and 38-40 min: 25% A and 75% B). The flow rate was 1 mL/min throughout the analytical run.

[3] = Permeation across the porcine intestine (Franz diffusion cell); format: in vitro ADME; conditions: 37° C., receiver PBS pH 7.4
Experimental: The Silymarin-CAPTISOL® complex was tested for its permeability in the GI tract using the porcine intestine and the silymarin solution without CAPTISOL® as a control sample. Freshly excised porcine intestine was cleaned and sandwiched between the two chambers of a Franz diffusion cell with an active diffusion area of 0.64 cm^2. The donor chamber was filled with 0.5 ml of CAPTISOL® enabled silymarin solution (prepared using ligand method) or pure silymarin in Phosphate buffered saline (PBS): Ethanol (80:20) used as a positive control. Receiver chamber was filled with 5 ml of PBS, pH 7.4, which is stirred at 600 rpm with a 3 mm magnetic stir bar at 37° C. temperature maintained with a circulating water bath. 200 μL of buffer from receiver side was withdrawn at different time intervals (0, 1, 2, 4, 6 and 8 h) and equal volume was replaced with fresh PBS buffer. Above samples were transferred into vials and subjected to HPLC analysis.
The control sample was prepared by adding excess of the silymarin extract to Phosphate buffered saline (PBS): Ethanol (80:20). These samples were shook at room temperature for 24 hr, and at equilibrium the samples were centrifuged at 10,000 RPM and filtered using Millipore (0.22 μm) syringe filter. The filtrates were analyzed using HPLC for Taxifolin, Silychristin, Silydianin, Silybin A, Silybin B, Isosilybin A and Isosilybin B after appropriate dilution. […]

[4] = Pharmacokinetic study in rat; format: in vivo; conditions: oral, FIG. 21A
Experimental: The Silymarin-CAPTISOL® complex was administered to rat to test its pharmacokinetic properties.
On arrival rats were housed individually in cages at animal care facility in a temperature and humidity controlled room with a 12 h:12 h (light:dark) cycles. The rats were provided with free access to food and water for one week before using for experimental purpose. The 12 rats were equally divided into three groups—Group I: silymarin-CAPTISOL® complex with a CAPTISOL® concentration of 100 mM for oral administration; Group II: silymarin suspension (Control); and Group III: silymarin complex with a CAPTISOL® concentration of 100 mM for intravenous administration. The animals were fasted overnight with free access to water. On the day of experiment, the rat was removed from animal care facility and brought to the procedure lab. The animal was weighed and appropriate dosing volume was determined. For oral administration, rat's head was held in place by gently extending the head back and supporting the lower body. The gavage tube was placed in the mouth and advanced along the lower palate till the esophagus, and the silymarin was administered through the tube. For intravenous administration, the silymarin-CAPTISOL® complex was administered by slow bolus intravenous injection into the tail vein. Approximately 200 μL blood was drawn into heparin coated tubes at pre dose, 0.15, 0.5, 1, 2, 4, 8, 10 and 24 h for oral group II and for intravenous group III. The sampling time points were predose, 0.12, 0.25, 0.5, 1, 2, 4, 8 and 24 h through the jugular vein catheter. Plasma was harvested by centrifuging the blood at 4000 RPM for 5 min and stored frozen at −80±10° C. until analysis.
Stored plasma was thawed just before performing the silymarin components analysis. 200 μL of acetonitrile containing 0.1% of ammonia was added to 50 μL of plasma, and this mixture was vortexed for 5 min and centrifuged at 4° C. for 5 min at 10,000 RPM. After centrifugation, the supernatant was separated and injected into HPLC for analysis of silymarin constituents taxifolin, silydianin, silychristin, silybin A, silybin B, isosilybin A and isosilybin B.
The plasma concentration-time curves of silybin A, silybin B, isosilybin A, and isosilybin B in the Silymarin-CAPTISOL® sample of Group I and the control sample (silymarin suspension) are respectively shown in FIGS. 20A to 20D.

- concentration fold higher than in the water silymarin sample [1]: 5 fold
- solubility [2]: 550 µg/mL (≈ 1810 µM)
- Apparent permeability coefficient Papp × 10^−3 ([3]; Silymarin CAPTISOL® complex in donor chamber): 9.46 × 10^−3
- Apparent permeability coefficient Papp × 10^−3 ([3]; Silymarin in Ethanol:PBS (20:80) (control)): 1.12 × 10^−3
- AUC of Silymarin-CAPTISOL® complex compared with the control sample [4]: higher AUC
SMILES: O=C1c2c(O)cc(O)cc2O[C@H](c2ccc(O)c(O)c2)[C@H]1O [Taxifolin]
